The results in this text go back to patent publication US20110144125A1, “Anti-Arrhythmia Agents, Methods of Their Use, Methods of Their Identification and Kits Therefore” (THE UAB RESEARCH FOUNDATION, priority 2008, published 2011).

In assay [1] the test system is rat left atrial appendage. Nature of the assay: 2-APB-induced spontaneous mechanical activity (SMA/SMEs) in isolated superfused rat left atria / left atrial appendage. The following applies: for prevention of electromechanical instability in model of abnormal automaticity (FIG. 6): polyphenol then 2-APB; for concentration at which SMA is reduced (reversal): recorded ˜10 min after addition; for time to reversal of SMA after exposure: 20 μM 2-APB-induced SMA; for effect on sporadic ectopic activity (SMA): 2-APB-treated appendages, known anti-arrhythmic agents, lidocaine data not shown. The method, then:
Left atria were isolated from male Sprague-Dawley rats (325 to 400 g) under IP pentobarbital anesthesia (0.1 g/kg). Isolated left atria were superfused at 30° C. in Krebs-Henseleit (KH) buffer of the following mM composition: NaCl, 118; NaHCO3, 27; KCl, 4.8; MgSO4, 1.2; KH2PO4, 1.0; CaCl2, 1.8; and glucose, 11.1. Nearly isometric left atrial forces of contraction were measured as described.
Isolated superfused left atria were paced at 3 Hz. 2-APB was added to atrial superfusates from 0.015 or 0.15M DMSO stock solutions to achieve concentrations of 0, 2, 7.5, 15, or 22 μM (n=5 to 10 atria per concentration). Changes in atrial mechanical force were recorded during a subsequent 15 min superfusion.
Two groups of 5 to 6, 3 Hz paced atria were superfused in KH and exposed to 0 or 15 μM 2-APB for 10 min. The pacing stimulus was interrupted for 5 min and the number of spontaneous mechanical events (SMEs), defined as increases in mechanical force occurring in the absence of pacing, were measured as was the postrest potentiation response (PRP).
To determine whether diastolic interval affected the interaction between 2-APB and left atria, atrial pacing was decreased to 0.1 Hz, and 0, 7.5, or 22 μM 2-APB was added to the superfusate (n=6-8 per group). Superfusions continued for 15 min, and changes in atrial mechanical function were observed.
To establish whether SMA was reversible, atria (n=7) were paced at 0.1 Hz, exposed to 15 μM 2-APB for 10 min, and washed with KH. The effect of removing 2-APB on atrial mechanical function was recorded.
To test whether an anion transport inhibitor affected SMA, atria (n=7) were paced at 0.1 Hz in KH and exposed to 15 μM 2-APB. Following the appearance of SMA, they were titrated with 100 to 400 μM DIDS for 3 to 5 min at each concentration. Whether SMA occurred at the end of each titration period was recorded.
(§1) Left atria (n=10 per group) were paced at 0.1 Hz and treated with (i) 20 μM 2-APB for 10 min, (ii) with 30 nM isoproterenol for 5 min followed by 20 μM 2-APB for 10 min, and (iii) with 3 μM forskolin for 5 min followed by 20 μM 2-APB for 10 min.
The appendages then were titrated with increasing concentrations of 2-APB, and SMA was measured and recorded.
To determine the anti-arrhythmic activity of gossypol, isolated rat left atrial appendage and right ventricular muscle strips were used as model systems, as described above. Heart muscle was exposed to 20 μM 2-APB for 10 min to induce SMA, and rates of SMA were recorded as a percentage of initial SMA. The muscles then were titrated with up to 5 increasing concentrations of gossypol. Rates of SMA were recorded ˜10 min after the addition of concentration of the polyphenol.
To determine whether EGCG can prevent arrhythmia, rat left atrial appendages (n=9) were exposed to 20 μM 2-APB and rates of SMA were recorded. Groups of muscles (n=6 per) were pre-treated with 30 μM EGCG for 10 min following which they were exposed to 2-APB. Rates of SMA were recorded 10 min later.
To determine whether EGCG is effective to reverse arrhythmia, isolated rat left atrial appendage and right ventricular muscle strips were used as model systems, as described above. Rat left atrial appendages were exposed to 20 μM 2-APB for 10 min to induce SMA, and rates of SMA were recorded as a percentage of initial SMA. The left atrial appendages then were titrated with up to 5 increasing concentrations of the following polyphenols: EGCG, gossypol, resveratrol, and quercetin. Rates of SMA were recorded ˜10 min after the addition of concentration of the polyphenol.
To determine whether EGC can prevent arrhythmia, left atrial appendages (n=9) were exposed to 20 μM 2-APB and rates of SMA were recorded. Groups of appendages (n=6 per) were pre-treated with 30 μM EGC for 10 min following which they were exposed to 2-APB.

Assay [2] relates to rat left atria. The assay can be described thus: Spontaneous tachycardic activity (STA) in isolated rat left atria exposed to 2-APB under increased calcium load. The method, then: Male Sprague-Dawley rats (325-400 g) were anesthetized with intra-peritoneal pentobarbital (0.1 g/kg). Their right and left atria were isolated, superfused at 30° C. in Krebs-Henseleit buffer, and nearly isometric forces of contraction were measured from these muscles (Wolkowicz et al., 2002). 2-APB was prepared as a 150 mM dimethyl sulfoxide stock.
Left atria (n=8 per group) were paced at 3 Hz and (i) titrated with 0 to 30 nM isoproterenol (Ahlquist, 1970) or (ii) exposed to 3 μM forskolin (Laurenza et al., 1980). Left atrial force and frequency of contraction, the time to peak tension and relaxation times were recorded after a 3-5 min exposure to forskolin or to any concentration of isoproterenol. The 3 Hz pacing stimulus was interrupted at the end of these protocols to measure SMEs.
as §1
Left atrial contraction and relaxation times were recorded at these five times, the pacing stimulus was stopped and rates of SMA were recorded. To determine whether initial pacing rate affects left atrial response to 2-APB and isoproterenol, left atria (n=5-7 per group) were paced at 3 Hz and (i) remained untreated for 15 min, (ii) were treated with 20 μM 2-APB alone for 10 min, or (ii) were treated with 30 nM isoproterenol for 5 min followed by 20 μM 2-APB for 10 min. Atrial mechanical function was measured at these four times; the pacing stimulus then was stopped and rates of SMA were recorded.
Left atria (n=6 per group) were paced at 3 Hz, titrated with 0 to 300 nM (−)BayK 8644 ([…]-1,4-Dihydro-2,6-dimethyl-5-nitro-4-[2-(trifluormethyl)phenyl]-3-pyridinecarboxylic acid methyl ester; Franckowiak et al. 1985) or FPL-64176 ((2,5-Dimethyl-4-[2-(phenylmethyl)benzoyl]-111-pyrrole-3-carboxylic acid methyl ester; Zheng et al., 1991) and their mechanical function and rates of SMA were recorded after a 5 min exposure to any concentration of slow calcium channel activator.
Left atria (n=8 per group) were paced at 0.1 Hz, exposed to 300 nM BayK 8644 or FPL-64176 for 5 min followed by 20 μM 2-APB for 10 min. Atrial mechanical function was recorded at this time; the pacing stimulus then was stopped and rates of SMA were recorded.
To test whether ryanodine receptor calcium leak produces SMA, left atria (n=6 per group) were paced at 0.1 Hz, treated with 0 or 300 nM BayK 8644 for 5 min, and then exposed to 600 nM ryanodine (Sutko et al., 1997). Atrial mechanical function and rates of SMA were recorded 20 min after exposure to ryanodine.
Rates of SMA were measured 5 min later.
Left atria (n=7) were paced at 3 Hz, treated with 120 μM ouabain (Illanes and Marshall, 1964), and any change in mechanical function was recorded at a new steady state, ˜10 min later. These atria were exposed to 20 μM 2-APB and their mechanical function and rates of SMA were recorded 10 min later.
3 Hz-paced left atria (n=9 per group) were superfused (i) in Krebs-Henseleit alone or (ii) they were treated with 20 μM 2-APB for 10 min, (iii) with 300 nM BayK 8644 for 10 min and with 20 μM 2-APB for 10 min, or (iv) they were treated with 300 nM BayK 8644 and 20 μM 2-APB for 10 min, then with 70 μM zatebradine (3-[3-[[2-(3,4-Dimethoxyphenyl)ethyl]methylamino] propyl]-1,3,4,5-tetrahydro-7,8,-dimethoxy-2H-3-benzazepin-2-one hydrochloride) for 10 min (Baruscotti et al., 2005). Pacing was interrupted at these times and rates of SMA were recorded.

The mark [3] stands for this setting: pre-treated with 30 μM for 10 min, then 20 μM 2-APB for 10 min.
[4] abbreviates: 20 μM 2-APB for 10 min, then titration.

Structures can show the parent of a compound that is named as a salt.

Turning to 2-methoxy antimycin A [2MAA], the “SMEs in 2MAA-treated appendages” value in assay [1] (pre-treated with 80 μM 2MAA, 15 μM 2-APB) was “none”.

Turning to `Oc1cc(O)c2c(c1)O[C@@H](c1cc(O)c(O)c(O)c1)[C@@H](O)C2` [EGC, (−)-cis-2-(3,4,5-trihydroxyphenyl)-3,4-dihydro-1(2H)-benzopyran-3,5,7-triol], the “prevention of electromechanical instability in model of abnormal automaticity (FIG. 6)” value (“prevention … (FIG. 6)” for short) in assay [1] is given as “prevent the electromechanical instability”. Besides, the “SMEs after pre-treatment (prevention of SMA)” value (“SMEs after pre-treatment” below) in assay [1] (setting [3]) was “no SMEs”.

On to `O=C(O[C@H]1Cc2c(O)cc(O)cc2O[C@H]1c1cc(O)c(O)c(O)c1)c1cc(O)c(O)c(O)c1` [EGCG, (−)-cis-2-(3,4,5-Trihydroxyphenyl)-3,4-dihydro-1(2H)-benzopyran-3,5,7-triol 3-gallate], for which the “concentration at which SMA is reduced (reversal)” value in assay [1] (setting [4]) is at least 20 µM. The “reversal of SMA” value in assay [1] (20 μM 2-APB, unpaced, 40 μM EGCG added to the muscle bath) is “SMA ceased”. Also, in assay [1], the “time to reversal of SMA after exposure” value is listed as at most 10 min and the “prevention … (FIG. 6)” value is “prevent the electromechanical instability”. Moreover, the “SMEs after pre-treatment” value in assay [1] (setting [3]) is given as “no SMEs”.

With `CCOC(=O)C1=C(N)Oc2ccc(Br)cc2C1C(C#N)C(=O)OCC` (stereo not shown) [HA14-1, ethyl 2-amino-6-bromo-4-(1-cyano-2-ethoxy-2-oxoethyl)-4H-chromene-3-carboxylate], in assay [1] (HA14-1 added 10 min after exposure to 2-APB), the “effect on SMA when added after 2-APB (reversal)” value is given as “no effect on SMA”. Further, in assay [1] (pre-treated with 30 μM HA14-1, 2-APB 15 μM and above, vs untreated appendages), the “SMEs after pre-treatment” value is on record as “significantly fewer SMEs”.

A word on the IC50: it is the point on the concentration scale where inhibition reaches its midpoint. Consider `COc1ccc(CCCOC(Cn2ccnc2)c2ccc(OC)cc2)cc1` (stereo not shown) [SKF-96365, 1-[2-(4-Methoxyphenyl)-2-[3-(4-methoxyphenyl)propoxy]ethyl-1H-imidazole hydrochloride], for which, in assay [2] (0.1 Hz-paced, BayK 8644 and 2-APB, ˜50 μM SKF-96365), the “reversal of STA” value was “STA was suppressed”. Further, in assay [2] (Rattus norvegicus, BayK 8644 and 2-APB, read-out: IC50 for reversal of STA), the IC50 is about 15 µM. Moreover, the “prevention of STA” value in assay [2] (data not shown) was “prevents STA”. The “prevention and reversal of SMA” value in assay [1] (data not shown) is “prevents and reverse SMA”.

Consider `O=C(NCC1CCCCN1)c1cc(OCC(F)(F)F)ccc1OCC(F)(F)F` (stereo not shown) [flecainide], for which the results for the “effect on sporadic ectopic activity (SMA)” value (from here on “effect … (SMA)”) in assay [1] and in assay [1] (listed as Flecainide) were “suppress this arrhythmic activity” and “suppresses SMA”, respectively.

`C=C[C@@]1(C)CC(=O)[C@]2(O)[C@@]3(C)[C@@H](O)CCC(C)(C)[C@@H]3[C@H](O)[C@H](OC(C)=O)[C@@]2(C)O1` [forskolin]: the “rate of STA (SMA frequency) in presence of 2-APB and calcium loading agent” value in assay [2] (20 μM 2-APB plus 30 nM isoproterenol, 3 μM forskolin, 300 nM BayK 8644, 300 nM FPL-64176 or 120 μM ouabain, absence of pacing, 30° C.) is 231±5 contractions/min.

For the molecule `Cc1cc2c(C(C)C)c(O)c(O)c(C=O)c2c(O)c1-c1c(C)cc2c(C(C)C)c(O)c(O)c(C=O)c2c1O` [gossypol, 7-(8-formyl-1,6,7-trihydroxy-3-methyl-5-propan-2-ylnaphthalen-2-yl)-2,3,8-trihydroxy-6-methyl-4-propan-2-ylnaphthalene-1-carbaldehyde], in assay [1] (setting [4]), the “concentration at which SMA dropped to zero (reversal)” value was at least 20 µM and the “concentration at which SMA is reduced (reversal)” value was at least 10 µM. In addition, in assay [1], the “time to reversal of SMA after exposure” value is listed as at most 10 min and the “prevention … (FIG. 6)” value was “prevent the electromechanical instability”.

Turning to `CCN(CC)CC(=O)Nc1c(C)cccc1C` [lidocaine], the “effect … (SMA)” value in assay [1] was “suppress this arrhythmic activity”.

As to `O=c1c(O)c(-c2ccc(O)c(O)c2)oc2cc(O)cc(O)c12` [quercetin, 2-(3,4-dihydroxyphenyl)-3,5,7-trihydroxy-4H-chromen-4-one], the “prevention … (FIG. 6)” value in assay [1] is reported as “prevent the electromechanical instability”. Moreover, in assay [1] (setting [3]), the “SMEs after pre-treatment” value was “no SMEs”.

For the molecule `COc1ccccc1OCC(O)CN1CCN(CC(=O)Nc2c(C)cccc2C)CC1` (stereo not shown) [ranolazine], the “effect on tachycardic activity (STA)” value in assay [2] (high calcium loads, 2-APB and 300 nM (−)BayK 8644, 80 μM ranolazine) is “suppresses, but does not completely prevent”. For the same molecule, in assay [1], the “effect … (SMA)” value is given as “prevent the sporadic ectopic activity”.

On to `Oc1ccc(C=Cc2cc(O)cc(O)c2)cc1` [resveratrol, 5-[2-(4-hydroxyphenyl)ethenyl]benzene-1,3-diol], for which the “prevention … (FIG. 6)” value in assay [1] was “prevent the electromechanical instability”. In addition, the “SMEs after pre-treatment” value in assay [1] (setting [3]) is recorded as “no SMEs”.
